Values joined by “and” are separate entries in the source; they are usually repeats but may differ in a detail not shown here. Identical values can stand only once.
System: P. falciparum 3D7 growth, pLDH absorbance
Test: P. falciparum 3D7 growth inhibition, dose response, strain 3D7 (AID 2305)

| SMILES | IC50 |
| --- | --- |
| Cc1noc(C)c1-c1cccc(C(=O)NC2CCN(CCNC(=O)C(c3ccccc3)c3ccccc3)CC2)c1 | 1220 nM |
| CCNc1cc(C(=O)N[C@@H](Cc2ccccc2)[C@H](O)CNC2C3CC4CC(C3)CC2C4)cc(N2CCCCS2(=O)=O)c1 (stereo not given in full) | 670 nM |
| CCCC1(NC[C@@H](O)[C@H](Cc2ccccc2)NC(=O)c2cc(NCC)cc(N3CCCCS3(=O)=O)c2)CC1 | 1080 nM |
| O=C(Cn1cc(C(F)(F)F)cc(Cl)c1=O)N1CCN(S(=O)(=O)c2ccc(Cl)cc2)CC1 | 900 nM |
| CCN(CCNC(=O)Nc1cc(C(F)(F)F)cc(C(F)(F)F)c1)c1cccc(C)c1 | 800 nM |
| CC(C)CCN=C(N)Nc1ccc(OCCCCCOc2ccc(NC(N)=NCCC(C)C)cc2)cc1 | 1080 nM |
| CCCCNc1ccc(C(=O)NC2CCN(C[C@H](O)c3ccnc4ccc(OC)cc34)CC2)cc1 | 440 nM |
| CCN(CCO)CCc1cccc(Nc2nccc(-c3c(-c4ccc(NC(=O)N(CC)CC)cc4)nn4ccccc34)n2)c1 | 1110 nM |
| CN1CCC(Oc2ccc(CN3CC[C@H](NC(=O)c4cccc(C#N)c4)C3)c3ccccc23)C1 (stereo not given in full) | 800 nM |
| Nc1nc(N)c2c(Sc3ccc(F)cc3)cccc2n1 | 1070 nM |
| COc1ccc(C(=O)Nc2ccc(Cl)cc2C(=O)Nc2ccncc2)cc1 | 820 nM |
| COc1ccc(CNC2CCN(C)CC2)cc1-c1ccc(S(=O)(=O)NC2CCC2)s1 | 730 nM |
| COc1cccc(NC(=O)Nc2ccc(Nc3nc(C)cc(N4CCCC4)n3)cc2)c1 | 200 nM |
| CCCCCCCNc1cc(C)nc2ccc(OC)cc12 | 670 nM |
| CCN(CC)CCCn1c(N)c(-c2nc3ccccc3[nH]2)c2nc(C#N)c(C#N)nc21 | 270 nM |
| COc1ccccc1CCNc1ncc(F)c(N[C@@H](Cc2ccccc2)C(=O)NCCc2ccccc2)n1 | 960 nM |
| O=c1c2ccccc2nc(C=Cc2ccc([N+](=O)[O-])cc2)n1-c1ccccn1 | 380 nM |
| c1ccc2[nH]c(CN(Cc3nc4ccccc4[nH]3)Cc3nc4ccccc4[nH]3)nc2c1 | 670 nM |
| CC(C)(C)c1ccc(CNC(=O)c2cc(CNC3CCNC3)ccc2O)cc1 (stereo not given) | 800 nM |
| CCNc1cc(C(=O)N[C@@H](Cc2ccccc2)[C@H](O)CNC2CCSCC2)cc(N2CCCC2=O)c1 | 130 nM |
| Cc1nnsc1C(=O)Nc1cccc(-c2cccc(-c3nc4ccc(F)cc4[nH]3)c2)c1 | 220 nM |
| CN1CCN=C1c1ccc(NC(=O)Nc2ccc(C3=NCCN3C)cc2)cc1 | 380 nM |
| CC=Cc1cc(Cc2cnc(N)nc2N)cc(CCC)c1OC | 780 nM |
| CC(C)C[C@H](NC(=O)c1ccc(F)cc1)C(=O)N[C@H](/C=N/NC(=O)c1ccccc1)CCc1ccccc1 | 810 nM |

| SMILES | IC50 |
| --- | --- |
| O=C(/C=C/c1ccccc1O)NC1CCC(CN2CCC(c3c[nH]c4ccccc34)CC2)CC1 (stereo not given) | 760 nM and 460 nM |
| Cc1[nH]c2c(c(=O)c1Cl)-c1ccc(Oc3cccc(C(F)(F)F)c3)cc1C2=O | 40 nM |
| CCN(c1cc(C)nc(Nc2ccc(Cl)cc2)n1)[C@H]1CCN(Cc2ccccc2)C1 | 860 nM |
| Nc1c(-c2ccc(C(=O)NCCNCc3ccccc3)cc2)cnn1-c1ccc(C(F)(F)F)cc1 | 1160 nM |
| CC(C)COc1ccc(Cl)cc1Cc1ccc(-c2nc3ccc(N4CCN(C)CC4)cc3[nH]2)o1 | 950 nM |
| CN1CCC(C(=O)Nc2cccc(-c3ccc(-c4nc5ccccc5[nH]4)cc3)c2)CC1 | 1090 nM |
| CCNc1cc(C)nc(Nc2ccc(NC(=O)c3ccccc3)cc2)n1 | 1020 nM |
| O=S(=O)(c1ccc(NC(=S)NN=Cc2ccccn2)cc1)N1CCCCC1 | 720 nM |
| COc1cc(C(=O)N2[C@@H](c3nccs3)[C@@H](C(=O)N(OC)C(C)c3ccccc3)C[C@@]2(CC(C)C)C(=O)OC(C)(C)C)ccc1C(C)(C)C (stereo not given in full) | 1070 nM |
| CC(=O)Nc1ccc2[nH]cc(C3CCN(CCC4CCN(C(=O)/C=C/c5ccc(Cl)c(Cl)c5)CC4)CC3)c2n1 | 520 nM |
| O=S(=O)(c1ccc2cc[nH]c2c1)N1CCC[C@@H]1CCN1CCC(c2c[nH]c3cnccc23)CC1 | 1020 nM |
| Nc1c2c(nc3ccc(C(=O)Nc4ccccc4)cc13)CCCC2 | 710 nM |
| FC(F)(F)Oc1ccc(-c2cnc3ccc(NCc4ccncc4)nn23)cc1 | 870 nM |
| CCCN1CCN(CCCNC(=O)c2cc3c(Cl)nc4ccc(C)cc4c3s2)CC1 | 800 nM |
| CCC(C)(C)c1ccc2nc(N)nc(N)c2c1C | 10 nM |
| CSc1nnc2n(Cc3ccccc3)c(=O)c3c(n12)-c1ccccc1CC31CCCCC1 | 970 nM |
| Fc1ccc2[nH]c3c(NCCCN4CCOCC4)ncnc3c2c1 | 710 nM |
| Cc1[nH]nc2cc(F)c(-c3cc(OC[C@@H](N)Cc4ccccc4)cnc3-c3ccoc3)cc12 | 1040 nM |
| O=[N+]([O-])c1cccc(-c2nc(-c3ccc(Br)cc3)[nH]c2-c2ccc(Br)cc2)c1 | 760 nM |
| COCCN1CCN(Cc2cccc(-c3ccc(-c4nc5ccccc5[nH]4)cc3)c2)CC1 | 760 nM |
| c1cc(-c2ccc(CNC3CCOCC3)cc2)cc(-c2nc3ccccc3[nH]2)c1 | 770 nM |
| CC(=O)Nc1nc(C(=O)Nc2cccc(-c3ccc(-c4nc5c(C)cccc5[nH]4)s3)c2)cs1 | 220 nM |
| Nc1ncc(-c2ccc(S(=O)(=O)Nc3ccc(C(=O)N[C@@H](CCC(=O)O)C(=O)O)cc3)cc2)c(=O)[nH]1 | 800 nM |
| OC(CNCCCc1ccccc1)c1cc(OCc2ccccc2)cc(OCc2ccccc2)c1 (stereo not given) | 850 nM |

| SMILES | IC50 |
| --- | --- |
| Cc1ccc(-c2ccn(Cc3ccc(OCc4ccccc4)cc3)n2)cn1 (tested in a mixture with another compound) | 670 nM |
| CCN(CC)S(=O)(=O)c1ccc(CCOCCCCCNCC(O)c2cc(Cl)c(N)c(Cl)c2)s1 (stereo not given) | 860 nM |
| COc1ccccc1-c1cccc2c(NC(=O)Nc3ccc4nccc(N5CCN(C)CC5)c4c3)ccnc12 | 1000 nM |
| c1cc2nc(CCCCc3nc4ccc(C5=N[C@H]6CCCC[C@H]6N5)cc4[nH]3)[nH]c2cc1C1=N[C@H]2CCCC[C@H]2N1 | 410 nM |
| COc1ccc(C(=C(C)CC(C)C(=O)O)c2ccccc2)cc1 (stereo not given) | 840 nM |
| COc1ccc(CCNc2ccnc3cc(Cl)ccc23)cc1OC | 890 nM |
| O=C(NCCCCN1CCC(c2ccc3c(c2OC(=O)c2ccc(NC(=O)c4ccc(Cl)cc4)cc2)CCCC3)CC1)c1ccc(NC(=O)c2ccc(Cl)cc2)cc1 | 200 nM |
| COc1ccc2nc(C)cc(NN=Cc3cccc(Cl)c3)c2c1 | 630 nM |
| CCOc1cc(C(=O)NC2CCN(Cc3ccccc3)CC2)ccc1-c1nc2cc(Cl)c(F)cc2[nH]1 | 800 nM |
| CC(C)S(=O)(=O)N1CCN(Cc2ccc3c(c2)nc(NC(=O)c2ccsc2)n3C[C@H](O)c2ccccc2)CC1 | 270 nM |
| N=c1n(CCN2CCCCC2)c2ccccc2n1CC(O)c1ccc(Cl)c(Cl)c1 (stereo not given) | 320 nM |
| O=C(Nc1ccc(OC2CCN(Cc3ccsc3)CC2)c(Cl)c1)c1ccc(F)cc1 | 650 nM |
| COc1ccc(NC(=O)Nc2cccc(-c3cccc(-c4nc5ccc(F)cc5[nH]4)c3)c2)cc1 | 170 nM |
| O=C(Nc1ccc(Cn2nc(Cl)c(N3CCCNCC3)cc2=O)cc1)Nc1ccc(-c2ccccc2)cc1 | 840 nM |
| Cc1csc2nc(-c3ccccn3)nc(Nc3ccncn3)c12 | 790 nM |
| CC(CN1CCN(C)CC1)C(=O)Nc1cccc(-c2ccc(-c3nc4ccccc4[nH]3)cc2)c1 (stereo not given) | 940 nM |
| COc1ccc2nccc([C@@H](O)CN3CCC(NCc4nc5c(F)cc(F)cc5[nH]4)CC3)c2c1 | 570 nM |
| CCn1cc2c3c(cc(C(=O)N[C@@H](Cc4ccccc4)[C@H](O)CNC4CCOCC4)cc31)N(C)S(=O)(=O)CC2 | 210 nM |
| CC(Cc1ccc(OCCOc2ccccc2)cc1)NCC(O)c1cccc(Cl)c1 (stereo not given) | 1040 nM |
| Cc1cc(C(=O)Nc2ccc3c(c2)CCN3C2CCN(Cc3cccc(F)c3F)C2)no1 (stereo not given) | 580 nM |
| Cc1ccc(C(=O)Cn2nc(-c3ccc(C)c(S(=O)(=O)N4CCCCC4)c3)ccc2=O)cc1 | 330 nM |
| COc1ccc(/C=C/c2ccc(-c3c(C)[nH]c(C)c(Cl)c3=O)cc2)cc1OC | 280 nM |
| O=C(/C=C/c1ccc(Cl)c(Cl)c1)NCCCCCN1CCC(NC(=O)Nc2ccccc2Cl)CC1 | 710 nM |
| CCn1c(Sc2ccc([N+](=O)[O-])c(C#N)c2)nnc1-c1cccc(Cl)c1 | 870 nM |

| SMILES | IC50 |
| --- | --- |
| O=C(C=Cc1ccc([N+](=O)[O-])cc1)NC1CCC(CN2CCC(c3c[nH]c4ccccc34)CC2)CC1 (stereo not given) | 790 nM and 840 nM |
| O=C(NCCCCN1CCC(c2ccc3c(c2OCCO)CCCC3)CC1)c1ccc(-c2ccc(C(F)(F)F)cc2)cc1 | 860 nM |
| CC(C)(O)CC(C)(C)c1cc(Cl)ccc1O | 450 nM |
| CN1CC=C(c2c[nH]c3ccc(OCc4ccccc4)cc23)CC1 | 720 nM |
| COc1ccc2nc(C)cc(Nc3ccc(Oc4ccc(Cl)c5ccccc45)c(Cl)c3)c2c1 | 730 nM |
| N#Cc1ccc(CN2CCC(Oc3ccc(NC(=O)c4cccs4)cc3)CC2)cc1 | 1030 nM |
| CCCCc1ccc(C(=O)Nc2ccc3nc(N4CCN(CC)CC4)cc(C)c3c2)cc1 | 910 nM |
| Cc1ccc2c(c1)c(C1CCN(C(=O)c3ccc([N+](=O)[O-])o3)CC1)cn2C | 750 nM |
| Nc1cccc(CNCc2cccc(-c3cccc(-c4nc5ccccc5[nH]4)c3)c2)c1 | 610 nM |
| CC(C)(C)CC(=O)Nc1ccc(Nc2cc(-c3ccncc3)cc3ncc(C(N)=O)cc23)cc1 | 700 nM |
| O=C(Nc1ccccc1)Nc1ccc(-n2ccc(C(F)(F)F)n2)cc1 | 630 nM |
| O=C(/C=C/c1ccc(Cl)c(Cl)c1)NCCCCCN1CCCC(CNC(=O)Nc2ccc(Oc3ccccc3)cc2)C1 (stereo not given) | 780 nM |
| CCCCCCCCn1c2c(c(=N)c3c1CCC3)CCC2 | 220 nM |
| CCN(CC)CCNC(=O)c1ccc(Nc2ncc([N+](=O)[O-])c(Nc3ccccc3OC)n2)cc1 | 140 nM |
| CCN1CCC(N(Cc2ccc(-c3ccc(Cl)cc3)cc2)C(=O)Cn2c(CCc3cccc(F)c3F)cc(=O)c3ccccc32)CC1 | 700 nM |
| O=C(Nc1cccc(C(F)(F)F)c1)NC1CCN(c2ccnc3ccccc23)CC1 | 990 nM |
| N#Cc1ccc(NC(=O)c2ccc(Cc3ccc4c(c3)CCN(C3CCC3)CC4)cn2)cc1 | 1120 nM |
| COc1ccccc1CCNC(=O)c1cnc(N2CCN(c3ccncc3)CC2)c(Cl)c1 | 1150 nM |
| CCc1cn2c3c(cc(C(=O)N[C@@H](Cc4ccccc4)[C@H](O)CNCc4ccc(C)cc4)cc13)N(C)S(=O)(=O)CC2 | 550 nM |
| N#Cc1ccc(-c2ccc(C(=O)NCCCCN3CCC(c4ccc5c(c4OCC(N)=O)CCCC5)CC3)cc2)cc1 | 980 nM |
| COc1ccccc1C(C)NCC(=O)Nc1ccccc1Sc1ccccc1 (stereo not given) | 1100 nM |
| Nc1c2nc(-c3c(F)cccc3Cl)[nH]c(=O)c2nc(=O)n1-c1ccccc1 | 680 nM |
| Cc1ccc(Oc2ccc(CNc3nc(Nc4cccc(F)c4)nc(Nc4cccc(F)c4)n3)cc2)cc1 | 1210 nM |
